Results from patent US8524700B2, “Tetrahydroisoquinoline sulfonamide derivatives, the preparation thereof, and the use of the same in therapeutics” (Sanofi, priority 2004, dated 2013).
Where a name gives a salt, the structure may show the parent alone.

tested on: food intake; experiment: food intake in rats fasting for 24 h; type: in vivo, Wistar rats; conditions: 10 mg/kg i.p., during the first hour after administration, rats fasted 24 h
Description: Furthermore, the compounds of the invention of formula I were subjected to in vivo tests showing their ability to reduce food intake in rats fasting for 24 h.
The experiments were carried out on Wistar rats. The rats were placed individually in transparent plastic cages 48×26, 5×21.5 cm. These cages were placed in a room insulated against any noise, at a temperature of 20 to 22° C., with a light cycle from 7 o'clock in the morning to 7 o'clock in the evening, the rats having free access to water and to the food.
Before the experiment was carried out, the rats were made to fast for 24 h, with access, however, to water ad libitum. On the day of the experiment, the carrier or the compound according to the present invention was administered i.p. or p.o., 15 or 30 minutes before a known amount of food (30 g) was made available.
Each hour, for 6 hours, the amount of food ingested by the rat was measured.

Q: With CC(C)c1ccc(CN2CCc3ccc(S(=O)(=O)NCCC4CCCN4C)cc3C2)cc1 (racemic) [compound 24, (+/−)-2-(4-isopropylbenzyl)-N-[2-(1-methylpyrrolidin-2-yl)ethyl]-1,2,3,4-tetrahydroisoquinoline-7-sulfonamide] as the molecule, how does the “decrease of food intake” value read?
A: The value was 54%.

biological target: native histamine H3 receptor (Rattus norvegicus, UniProt Q9QYN8); experiment: in vitro affinity assay on native histamine H3 receptor, [3H]-N-α-methylhistamine binding, adult rat brain membrane preparation; conditions: rat brain membranes, read-out: Ki with respect to H3 receptors
Sequence (Q9QYN8 1-397 isoform Q9QYN8-3): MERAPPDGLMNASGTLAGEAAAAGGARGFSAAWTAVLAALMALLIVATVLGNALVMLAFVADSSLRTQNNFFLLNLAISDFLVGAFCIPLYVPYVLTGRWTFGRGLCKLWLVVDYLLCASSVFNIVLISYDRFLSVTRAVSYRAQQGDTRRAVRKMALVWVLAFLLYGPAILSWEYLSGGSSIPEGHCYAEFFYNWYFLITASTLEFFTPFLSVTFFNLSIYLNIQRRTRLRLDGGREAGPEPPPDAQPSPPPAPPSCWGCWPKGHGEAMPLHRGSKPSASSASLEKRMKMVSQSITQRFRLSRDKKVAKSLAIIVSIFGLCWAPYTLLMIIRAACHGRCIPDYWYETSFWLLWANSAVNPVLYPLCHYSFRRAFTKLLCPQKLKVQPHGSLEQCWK
From the text: More particularly, the compounds of the invention are histamine H3-receptor antagonists. H3 receptors are known to those skilled in the art and their advantage in therapeutics has been described in the literature (“Histamine H3 receptor antagonists” Exp. Opinion Ther. Patents (2000) 10 (7):1045-1055). Thus, the compounds of the invention of formula I were subjected to an in vitro affinity assay on the native histamine H3 receptor in an adult rat brain membrane preparation, by specific binding of [^3H]-N-α-methylhistamine to this receptor, according to the methods described by A. Korte et al., in Biochem. Biophys. Res. Commun. 168, 979-986 (1990) and by R. E. West Jr. et al., in Mol. Pharmacol. 38, 610-613 (1990).

Q: With CN1CCCC1CCNS(=O)(=O)c1ccc2c(c1)CN(CC1CCCCC1)CC2 (racemic) [compound 15, (+/−)-2-(cyclohexylmethyl)-N-[2-(1-methylpyrrolidin-2-yl)ethyl]-1,2,3,4-tetrahydroisoquinoline-7-sulfonamide] as the molecule, how does the Ki read?
A: The Ki was 300 pM.

tested on: not given; experiment: not given; conditions: not given

Q: With CCC(C)CN1CCc2ccc(S(=O)(=O)NCCC3CCCN3C)cc2C1 (racemic) (as salt: oxalate) [compound 32, (+/−)-2-(2-methylbutyl)-N-[2-(1-methylpyrrolidin-2-yl)ethyl]-1,2,3,4-tetrahydroisoquinoline-7-sulfonamide] as the molecule, how does the melting point read?
A: The melting point was 66 to 77 °C.

Q: For CN(C)CCCNS(=O)(=O)c1ccc2c(c1)CNCC2 (as salt: hydrochloride), which melting point is on record?
A: Its melting point is 230 to 234 °C.

Q: With CN1CCCC1CCNS(=O)(=O)c1ccc2c(c1)CN(Cc1ccc(Br)cc1)CC2 (racemic) (as salt: oxalate) [compound 30, (+/−)-2-(4-bromobenzyl)-N-[2-(1-methylpyrrolidin-2-yl)ethyl]-1,2,3,4-tetrahydroisoquinoline-7-sulfonamide] as the molecule, how does the melting point read?
A: The melting point was 86 to 110 °C.

Q: With CCN(CC)CCCNS(=O)(=O)c1ccc2c(c1)CN(C(C)C)CC2 (as salt: oxalate) [compound 10, N-[3-(diethylamino)propyl]-2-isopropyl-1,2,3,4-tetrahydroisoquinoline-7-sulfonamide] as the molecule, how does the melting point read?
A: Its melting point is 54 to 59 °C.

Q: With O=S(=O)(NCCCN1CCCC1)c1ccc2c(c1)CNCC2 (as salt: hydrochloride) [compound 18, N-(3-pyrrolidin-1-ylpropyl)-1,2,3,4-tetrahydroisoquinoline-7-sulfonamide] as the molecule, how does the melting point read?
A: The melting point was 237 to 241 °C.

Q: Which melting point does the source give for CN1CCc2ccc(S(=O)(=O)NCCCN3CC=CC3)cc2C1 (as salt: oxalate) [compound 16, N-[3-(2,5-dihydro-1H-pyrrol-1-yl)propyl]-2-methyl-1,2,3,4-tetrahydroisoquinoline-7-sulfonamide] here?
A: Its melting point is 99 to 104 °C.

Q: For O=S(=O)(NCCCN1CCN(Cc2ccccc2)CC1)c1ccc2c(c1)CNCC2 (as salt: hydrochloride) [compound 17, N-[3-(4-benzylpiperazin-1-yl)propyl]-1,2,3,4-tetrahydroisoquinoline-7-sulfonamide], which melting point is on record?
A: Its melting point is 244 to 249 °C.

Q: For CN1CCCC1CCNS(=O)(=O)c1ccc2c(c1)CN(Cc1ccccc1)CC2 (racemic) (as salt: oxalate) [compound 23, (+/−)-2-benzyl-N-[2-(1-methylpyrrolidin-2-yl)ethyl]-1,2,3,4-tetrahydroisoquinoline-7-sulfonamide], which melting point is on record?
A: The melting point was 77 to 82 °C.

Q: Which melting point does the source give for CC(C)c1ccc(CN2CCc3ccc(S(=O)(=O)NCCC4CCCN4C)cc3C2)cc1 (racemic) (as salt: oxalate) [compound 24, (+/−)-2-(4-isopropylbenzyl)-N-[2-(1-methylpyrrolidin-2-yl)ethyl]-1,2,3,4-tetrahydroisoquinoline-7-sulfonamide] here?
A: Its melting point is 103 to 110 °C.

Q: With O=S(=O)(NCCCN1CC=CC1)c1ccc2c(c1)CNCC2 (as salt: hydrochloride) [compound 13, N-[3-(2,5-dihydro-1H-pyrrol-1-yl)propyl]-1,2,3,4-tetrahydroisoquinoline-7-sulfonamide] as the molecule, how does the melting point read?
A: Its melting point is 228 to 231 °C.

Q: Which melting point does the source give for CCN(CC)CCCNS(=O)(=O)c1ccc2c(c1)CN(CC1CC1)CC2 (as salt: oxalate) [compound 6, 2-(cyclopropylmethyl)-N-[3-(diethylamino)propyl]-1,2,3,4-tetrahydroisoquinoline-7-sulfonamide] here?
A: The melting point was 98 to 103 °C.

Q: Which melting point does the source give for O=S(=O)(NCCCN1CCOCC1)c1ccc2c(c1)CNCC2 (as salt: hydrochloride) [compound 19, N-(3-morpholin-4-ylpropyl)-1,2,3,4-tetrahydroisoquinoline-7-sulfonamide] here?
A: The melting point was 238 to 245 °C.

Q: Which melting point does the source give for CCN(CC)CCCNS(=O)(=O)c1ccc2c(c1)CN(CC1CCCCC1)CC2 (as salt: oxalate) [compound 7, 2-(cyclohexylmethyl)-N-[3-(diethylamino)propyl]-1,2,3,4-tetrahydroisoquinoline-7-sulfonamide] here?
A: Its melting point is 144 to 147 °C.

Q: With CN1CCCC1CCNS(=O)(=O)c1ccc2c(c1)CN(Cc1ccc3c(c1)OCO3)CC2 (racemic) (as salt: oxalate) [compound 25, (+/−)-2-(1,3-benzodioxol-5-ylmethyl)-N-[2-(1-methylpyrrolidin-2-yl)ethyl]-1,2,3,4-tetrahydroisoquinoline-7-sulfonamide] as the molecule, how does the melting point read?
A: Its melting point is 106 to 109 °C.

Q: For CCN(CC)CCCNS(=O)(=O)c1ccc2c(c1)CN(Cc1cccs1)CC2 (as salt: oxalate) [compound 11, N-[3-(diethylamino)propyl]-2-(2-thienylmethyl)-1,2,3,4-tetrahydroisoquinoline-7-sulfonamide], which melting point is on record?
A: The melting point was 109 to 115 °C.

Q: For Cc1cc(C)cc(CN2CCc3ccc(S(=O)(=O)NCCC4CCCN4C)cc3C2)c1 (racemic) (as salt: oxalate) [compound 34, (+/−)-2-(3,5-dimethyl-benzyl)-N-[2-(1-methylpyrrolidin-2-yl)ethyl]-1,2,3,4-tetrahydroisoquinoline-7-sulfonamide], which melting point is on record?
A: Its melting point is 121 to 125 °C.

Q: Which melting point does the source give for O=S(=O)(NCCCN1CC=CCC1)c1ccc2c(c1)CNCC2 (as salt: hydrochloride) [compound 9, N-[3-(3,6-dihydropyridin-1(2H)-yl)propyl]-1,2,3,4-tetrahydroisoquinoline-7-sulfonamide] here?
A: The melting point was over 250 °C.

Q: For CC1CCCCN1CCCNS(=O)(=O)c1ccc2c(c1)CNCC2 (racemic) (as salt: hydrochloride), which melting point is on record?
A: The melting point was 65 to 70 °C.

Q: For CCN(CC)CCCNS(=O)(=O)c1ccc2c(c1)CN(C1CCCCC1)CC2 (as salt: oxalate) [compound 14, 2-cyclohexyl-N-[3-(diethylamino)propyl]-1,2,3,4-tetrahydroisoquinoline-7-sulfonamide], which melting point is on record?
A: The melting point was 55 to 60 °C.

Q: With CCN(CC)CCCNS(=O)(=O)c1ccc2c(c1)CN(Cc1ccsc1)CC2 (as salt: oxalate) [compound 12, N-[3-(diethylamino)propyl]-2-(3-thienylmethyl)-1,2,3,4-tetrahydroisoquinoline-7-sulfonamide] as the molecule, how does the melting point read?
A: Its melting point is 89 to 95 °C.

Q: For COc1cccc(CN2CCc3ccc(S(=O)(=O)NCCC4CCCN4C)cc3C2)c1 (racemic) (as salt: oxalate) [compound 33, (+/−)-2-(3-methoxybenzyl)-N-[2-(1-methylpyrrolidin-2-yl)ethyl]-1,2,3,4-tetrahydroisoquinoline-7-sulfonamide], which melting point is on record?
A: Its melting point is 80 to 107 °C.

Q: Which melting point does the source give for O=S(=O)(NCCCN1CCCC1)c1ccc2c(c1)CN(CC1CCCCC1)CC2 (as salt: oxalate) [compound 21, 2-(cyclohexylmethyl)-N-(3-pyrrolidin-1-ylpropyl)-1,2,3,4-tetrahydroisoquinoline-7-sulfonamide] here?
A: Its melting point is 130 to 141 °C.

Q: With CCN(CC)CCCNS(=O)(=O)c1ccc2c(c1)CN(Cc1ccccc1)CC2 (as salt: oxalate) [compound 5, 2-benzyl-N-[3-(diethylamino)propyl]-1,2,3,4-tetrahydroisoquinoline-7-sulfonamide] as the molecule, how does the melting point read?
A: The melting point was 91 to 95 °C.

Q: With CN1CCCC1CCNS(=O)(=O)c1ccc2c(c1)CN(CC1CC1)CC2 (racemic) (as salt: oxalate) [compound 22, (+/−)-2-(cyclopropylmethyl)-N-[2-(1-methylpyrrolidin-2-yl)ethyl]-1,2,3,4-tetrahydroisoquinoline-7-sulfonamide] as the molecule, how does the melting point read?
A: Its melting point is 50 to 60 °C.

Q: Which melting point does the source give for COc1ccc(OC)c(CN2CCc3ccc(S(=O)(=O)NCCC4CCCN4C)cc3C2)c1 (racemic) (as salt: oxalate) [compound 31, (+/−)-2-(2,5-dimethoxybenzyl)-N-[2-(1-methylpyrrolidin-2-yl)ethyl]-1,2,3,4-tetrahydroisoquinoline-7-sulfonamide] here?
A: The melting point was 87 to 90 °C.

biological target: T1, human histamine H3 receptor transfected into CHO cells (Homo sapiens, UniProt Q9Y5N1); experiment: cAMP formation assay, inhibition of R-α-methylhistamine agonism, CHO cells (EIA kit); type: cell-based; conditions: human H3 in CHO cells, EIA kit (Amersham)
T1 construct: expressed in transfected cells; host or cells: CHO cells
T1 sequence (Q9Y5N1 whole entry): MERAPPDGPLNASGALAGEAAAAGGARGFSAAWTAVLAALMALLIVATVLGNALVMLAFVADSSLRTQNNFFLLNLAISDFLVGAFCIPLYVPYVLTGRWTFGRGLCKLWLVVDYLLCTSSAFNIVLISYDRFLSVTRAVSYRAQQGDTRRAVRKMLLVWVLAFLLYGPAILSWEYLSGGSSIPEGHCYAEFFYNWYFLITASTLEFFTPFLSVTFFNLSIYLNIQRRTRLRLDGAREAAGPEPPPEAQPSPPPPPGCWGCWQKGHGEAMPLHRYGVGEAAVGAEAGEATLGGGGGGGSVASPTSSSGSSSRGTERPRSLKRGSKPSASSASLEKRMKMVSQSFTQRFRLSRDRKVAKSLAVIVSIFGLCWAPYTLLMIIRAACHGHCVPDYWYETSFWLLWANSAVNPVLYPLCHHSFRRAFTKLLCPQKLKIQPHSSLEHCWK
Description: The compounds of the invention of formula I were also subjected to a cAMP formation assay, on the human histamine H3 receptor transfected into CHO cells, by inhibition of the agonism caused by the specific binding of R-α-methylhistamine to this receptor, according to the methods described by T. W. Lovenberg et al., in J. Pharmacol. Exp. Ther. 293, 771-778 (2000).
By way of example, compound 15, included in Table 1, has an IC50<10 nM, using an EIA kit (Amersham) to measure cAMP formation, on the human histamine H3 receptor transfected into CHO cells, by inhibition of the agonism caused by the specific binding of R-α-methylhistamine to this receptor.

Q: With CN1CCCC1CCNS(=O)(=O)c1ccc2c(c1)CN(CC1CCCCC1)CC2 (racemic) [compound 15, (+/−)-2-(cyclohexylmethyl)-N-[2-(1-methylpyrrolidin-2-yl)ethyl]-1,2,3,4-tetrahydroisoquinoline-7-sulfonamide] as the molecule, how does the IC50 read?
A: The IC50 was under 10000 pM.
